Laboratory results from patent US20230241167A1, “Use of Caveolin-1 Scaffolding Domain Peptides for Treating Disease and Disorders” (MUSC Foundation for Research Development, priority 2020, published 2023).
Square brackets hold non-standard residues; d marks the D form. Ends that are not written are not given here. Peptide text beside a SMILES is read from it.

How the values were obtained:
Ang II-infused mice = experiment: Angiotensin II-induced congestive heart failure (CHF) model; format: in vivo; details: for suppression of AngII-induced fibrosis in the heart (Col I deposition and HSP47 level) / suppression of AngII-induced microvascular leakage in the heart (IgG heavy chain level in the tissue): Western blot; for overall effectiveness of domains in the CHF model (summary of FIGS. 1-7): FIG. 8; for suppression of the effects of AngII on Heart Weight/Body Weight (HW/BW) ratio: young mice (3 months) infused with Ang II two weeks
Method: FIG. 1 provides an overview of an experiment using Full-Length CSD, 82-89, 88-95, and 94-101 (SEQ ID NO:1, SEQ ID NO:2, SEQ ID NO:3, and SEQ ID NO:4 respectively).
Young mice (3 months old) infused with Ang II or vehicle for two weeks received daily i.p. injections of CSD, the indicated subdomains or scrambled CSD (0.8 μmol/kg). Mice were evaluated by Echocardiography for changes in posterior wall thickness (pWTh), fractional shortening (FS), cardiac output (CO), ejection fraction (EF), and isovolumic relaxation time (IVRT). Significant changes are shown as ***p<0.001 for Sham+Veh vs AngII+Veh. Significant suppression of AngII-induced changes is shown as ^p<0.05, ^^p<0.01, and ^^^p<0.001 for AngII+Veh vs AngII+CSD or AngII+CSD subdomains. The number of mice used in each treatment are shown in the HW/BW data.
Young mice (3 months old) infused with Ang II or vehicle for two weeks received daily i.p. injections of the indicated subdomains of CSD. The results of a typical experiment for Col I and HSP47 (FIG. 4) and for microvascular leakage (FIG. 5) are shown in Western blots (2 to 3 mice per group). The data are quantified below (n=4). Significant changes are shown as *p<0.05 and **p<0.01 for Sham+Veh vs Ang II+Veh. Significant suppression of Ang II-induced changes by subdomains are shown as ^p<0.05, […], and ^^^p<0.001 for Ang II+Veh vs Ang II+CSD subdomains.
Young mice (3 months old) infused with Ang II or vehicle for two weeks received daily i.p. injections of W82-89. IgG heavy chain (IgGH) leakage and Col I accumulation are shown in Western blots. The actin loading control is present twice because IgGH was analyzed in the supernatant fraction of heart homogenate while Col I is found in the pellet fraction. In the quantitation (n=4), significant changes are shown as **p<0.01 and ***p<0.001 for Sham+Veh vs Ang II+Veh and ^^p<0.01 and ^^^p<0.001 for reversal of AngII-induced changes by W82-89.

bleomycin-treated mice [1] = experiment: Bleomycin-induced lung and skin fibrosis, treatments delivered by pump; format: in vivo; details: for bleomycin-induced lung fibrosis (Ashcroft score): treatment by pump over two weeks after one week bleomycin, n=6
Method: Experiments were conducted to examine the effect of unmodified CSD subdomains on lung and skin fibrosis. […] Pumps containing bleomycin or saline vehicle were implanted subcutaneously into mice. After one week, the pumps had emptied and were replaced with pumps designed to empty over two weeks containing the indicated treatments (n=6 per group). After these two weeks, the mice were sacrificed.
Skin in the vicinity of the pump outlet was harvested for measurement of the thickness of the dermis and the intradermal fat. ^^^p<0.001 for Saline/Vehicle vs Bleo/Vehicle. ***p<0.001, **p<0.01, *p<0.05 for Bleo/Vehicle vs Bleo/Peptide Treatments.

bleomycin-treated mice [2] = experiment: Bleomycin-induced lung and skin fibrosis, daily i.p. WCSD; format: in vivo
Method: Pumps containing bleomycin or saline vehicle were implanted subcutaneously into mice. After one week, the pumps had emptied. In addition, mice were injected i.p. daily as indicated, then sacrificed on day 22. All groups contained 4 mice.
Fibrocytes (CD45+/Col I+ cells) were quantified by Flow Cytometry. ECM proteins (Col I, Tenascin C), myofibroblast markers (HSP47, ASMA), and microvascular leakage (IgG Heavy Chain that remained in the tissue after perfusion) were quantified by Western blotting (n=4). Western blot data were quantified densitometrically following normalization to an actin loading control. The value in Saline treated mice was set to 1.0 Arbitrary Unit. ^^p<0.01, ^p<0.05 for Saline/Vehicle vs Bleo/Vehicle; *p<0.05 for Bleo/Vehicle vs Bleo/WCSD.

PKCα = PKCα (Homo sapiens, UniProt P17252); experiment: Inhibition of purified kinases; format: biochemical; details: purified kinase
PKCε = target: T1, PKCε (Homo sapiens, UniProt Q02156); experiment: Inhibition of purified kinases; format: biochemical; details: purified kinase
T1 sequence (Q02156 1-737): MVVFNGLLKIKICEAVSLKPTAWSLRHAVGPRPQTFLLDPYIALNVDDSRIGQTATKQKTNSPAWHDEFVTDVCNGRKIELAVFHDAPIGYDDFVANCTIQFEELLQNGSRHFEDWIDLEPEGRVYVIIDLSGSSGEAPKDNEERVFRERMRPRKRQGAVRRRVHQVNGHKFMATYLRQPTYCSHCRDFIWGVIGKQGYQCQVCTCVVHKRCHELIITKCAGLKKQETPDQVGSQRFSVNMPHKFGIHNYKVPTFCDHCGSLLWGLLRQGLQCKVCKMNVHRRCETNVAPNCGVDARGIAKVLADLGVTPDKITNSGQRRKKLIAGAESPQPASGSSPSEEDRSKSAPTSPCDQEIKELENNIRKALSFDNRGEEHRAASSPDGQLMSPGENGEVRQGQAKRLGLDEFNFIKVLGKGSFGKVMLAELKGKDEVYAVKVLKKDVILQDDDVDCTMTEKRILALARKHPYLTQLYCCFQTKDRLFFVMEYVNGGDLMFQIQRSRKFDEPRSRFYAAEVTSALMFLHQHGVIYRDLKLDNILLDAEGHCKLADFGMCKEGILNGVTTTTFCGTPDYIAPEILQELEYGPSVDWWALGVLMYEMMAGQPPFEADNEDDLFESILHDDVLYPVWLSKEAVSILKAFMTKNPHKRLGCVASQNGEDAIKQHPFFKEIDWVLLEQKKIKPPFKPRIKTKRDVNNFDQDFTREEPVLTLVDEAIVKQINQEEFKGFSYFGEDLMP

cMet = cMet (Homo sapiens, UniProt P08581); experiment: Inhibition of purified kinases; format: biochemical; details: purified kinase
VEGFR1 = VEGFR1 (Homo sapiens, UniProt P17948); experiment: Inhibition of purified kinases; format: biochemical; details: purified kinase
VEGFR3 = VEGFR3 (Homo sapiens, UniProt P35916); experiment: Inhibition of purified kinases; format: biochemical; details: purified kinase
VEGFR2 = VEGFR2 (Homo sapiens, UniProt P35968); experiment: Inhibition of purified kinases; format: biochemical; details: purified kinase; nintedanib worked at much lower concentrations
TGFβR1 = target: T2, TGFβR1 (Homo sapiens, UniProt P36897); experiment: Inhibition of purified kinases; format: biochemical; details: purified kinase; nintedanib worked at much lower concentrations
T2 sequence (P36897 34-503): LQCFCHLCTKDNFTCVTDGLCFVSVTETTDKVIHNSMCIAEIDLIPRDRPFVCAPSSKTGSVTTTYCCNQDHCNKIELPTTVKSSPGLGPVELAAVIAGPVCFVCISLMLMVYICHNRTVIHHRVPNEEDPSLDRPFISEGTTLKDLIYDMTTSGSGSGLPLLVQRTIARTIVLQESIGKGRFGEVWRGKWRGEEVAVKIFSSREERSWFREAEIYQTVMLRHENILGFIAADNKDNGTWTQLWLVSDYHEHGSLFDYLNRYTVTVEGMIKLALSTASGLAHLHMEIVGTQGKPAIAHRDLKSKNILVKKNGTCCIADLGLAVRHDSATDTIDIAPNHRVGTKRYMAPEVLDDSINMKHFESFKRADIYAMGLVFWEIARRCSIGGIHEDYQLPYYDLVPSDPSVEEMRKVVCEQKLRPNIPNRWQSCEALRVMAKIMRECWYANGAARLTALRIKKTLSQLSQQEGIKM

Src = Src (Homo sapiens, UniProt P12931); experiment: Inhibition of purified kinases; format: biochemical; details: purified kinase; nintedanib worked at much lower concentrations
PDGFRα = PDGFRα (Homo sapiens, UniProt P16234); experiment: Inhibition of purified kinases; details: purified kinase
PDGFRβ = PDGFRβ (Homo sapiens, UniProt P09619); experiment: Inhibition of purified kinases; details: purified kinase
[3] = young mice infused with Ang II two weeks, daily i.p. injections, echocardiography

Sequence of PDGFRα (P16234 24-1089, species assumed): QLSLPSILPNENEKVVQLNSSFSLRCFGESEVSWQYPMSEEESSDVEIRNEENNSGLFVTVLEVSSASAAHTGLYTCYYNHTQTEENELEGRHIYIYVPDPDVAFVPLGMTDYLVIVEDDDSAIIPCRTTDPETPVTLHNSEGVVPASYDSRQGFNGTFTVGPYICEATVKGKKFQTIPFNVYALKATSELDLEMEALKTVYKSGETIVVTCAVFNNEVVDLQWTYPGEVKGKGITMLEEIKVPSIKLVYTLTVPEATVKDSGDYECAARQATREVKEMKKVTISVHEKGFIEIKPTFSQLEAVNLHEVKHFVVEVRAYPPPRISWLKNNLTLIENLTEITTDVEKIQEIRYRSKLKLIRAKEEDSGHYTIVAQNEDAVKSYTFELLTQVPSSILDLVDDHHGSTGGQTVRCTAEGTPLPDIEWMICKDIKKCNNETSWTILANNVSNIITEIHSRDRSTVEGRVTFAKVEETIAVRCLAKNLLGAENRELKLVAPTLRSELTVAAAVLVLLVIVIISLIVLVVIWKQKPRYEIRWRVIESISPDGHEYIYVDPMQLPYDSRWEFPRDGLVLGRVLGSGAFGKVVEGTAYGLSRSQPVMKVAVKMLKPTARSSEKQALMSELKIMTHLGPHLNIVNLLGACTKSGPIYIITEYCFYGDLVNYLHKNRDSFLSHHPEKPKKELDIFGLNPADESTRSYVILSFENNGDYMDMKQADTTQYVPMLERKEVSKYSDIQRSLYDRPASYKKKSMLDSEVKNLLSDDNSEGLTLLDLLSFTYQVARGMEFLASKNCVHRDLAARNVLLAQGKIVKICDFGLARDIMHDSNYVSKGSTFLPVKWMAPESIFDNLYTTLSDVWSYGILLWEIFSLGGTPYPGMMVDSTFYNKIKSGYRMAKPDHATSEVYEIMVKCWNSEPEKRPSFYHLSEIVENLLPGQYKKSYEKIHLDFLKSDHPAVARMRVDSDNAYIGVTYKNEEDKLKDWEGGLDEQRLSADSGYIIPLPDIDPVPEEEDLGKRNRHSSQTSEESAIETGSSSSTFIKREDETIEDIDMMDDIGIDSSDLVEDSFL
Sequence of VEGFR2 (P35968 20-1356, species assumed): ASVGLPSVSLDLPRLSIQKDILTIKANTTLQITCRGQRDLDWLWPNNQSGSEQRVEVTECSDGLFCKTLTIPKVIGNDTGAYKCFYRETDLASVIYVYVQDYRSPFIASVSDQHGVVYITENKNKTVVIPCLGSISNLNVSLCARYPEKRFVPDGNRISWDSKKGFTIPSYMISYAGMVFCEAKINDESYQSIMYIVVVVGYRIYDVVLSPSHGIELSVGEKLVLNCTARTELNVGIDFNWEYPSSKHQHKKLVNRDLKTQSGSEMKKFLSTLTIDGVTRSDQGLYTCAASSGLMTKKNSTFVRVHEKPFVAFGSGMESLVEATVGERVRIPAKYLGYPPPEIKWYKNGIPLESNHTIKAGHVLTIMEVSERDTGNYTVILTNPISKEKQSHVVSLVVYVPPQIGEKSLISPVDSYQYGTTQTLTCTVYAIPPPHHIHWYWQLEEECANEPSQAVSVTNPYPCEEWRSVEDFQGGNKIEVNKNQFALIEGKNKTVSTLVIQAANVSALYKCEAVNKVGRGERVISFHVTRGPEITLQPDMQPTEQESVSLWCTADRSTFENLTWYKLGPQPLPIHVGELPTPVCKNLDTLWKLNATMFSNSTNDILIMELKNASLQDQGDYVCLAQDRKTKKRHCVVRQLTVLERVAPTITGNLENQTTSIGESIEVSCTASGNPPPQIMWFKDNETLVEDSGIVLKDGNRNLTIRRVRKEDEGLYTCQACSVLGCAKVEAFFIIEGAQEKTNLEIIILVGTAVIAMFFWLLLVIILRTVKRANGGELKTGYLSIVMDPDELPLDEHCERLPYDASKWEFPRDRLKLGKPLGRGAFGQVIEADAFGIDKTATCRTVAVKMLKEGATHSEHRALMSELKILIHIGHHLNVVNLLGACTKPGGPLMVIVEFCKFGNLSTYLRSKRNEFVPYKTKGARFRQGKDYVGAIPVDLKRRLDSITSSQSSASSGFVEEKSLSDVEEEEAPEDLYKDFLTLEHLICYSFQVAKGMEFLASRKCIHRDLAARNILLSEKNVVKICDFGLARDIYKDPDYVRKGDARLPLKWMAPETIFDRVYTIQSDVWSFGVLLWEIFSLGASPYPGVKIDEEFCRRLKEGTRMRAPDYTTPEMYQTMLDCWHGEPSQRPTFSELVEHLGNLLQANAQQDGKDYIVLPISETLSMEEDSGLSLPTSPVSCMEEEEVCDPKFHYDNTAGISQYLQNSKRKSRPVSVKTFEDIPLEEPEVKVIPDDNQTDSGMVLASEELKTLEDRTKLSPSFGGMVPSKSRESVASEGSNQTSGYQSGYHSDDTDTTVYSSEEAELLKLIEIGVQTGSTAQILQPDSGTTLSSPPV
Sequence of cMet (P08581 25-1390): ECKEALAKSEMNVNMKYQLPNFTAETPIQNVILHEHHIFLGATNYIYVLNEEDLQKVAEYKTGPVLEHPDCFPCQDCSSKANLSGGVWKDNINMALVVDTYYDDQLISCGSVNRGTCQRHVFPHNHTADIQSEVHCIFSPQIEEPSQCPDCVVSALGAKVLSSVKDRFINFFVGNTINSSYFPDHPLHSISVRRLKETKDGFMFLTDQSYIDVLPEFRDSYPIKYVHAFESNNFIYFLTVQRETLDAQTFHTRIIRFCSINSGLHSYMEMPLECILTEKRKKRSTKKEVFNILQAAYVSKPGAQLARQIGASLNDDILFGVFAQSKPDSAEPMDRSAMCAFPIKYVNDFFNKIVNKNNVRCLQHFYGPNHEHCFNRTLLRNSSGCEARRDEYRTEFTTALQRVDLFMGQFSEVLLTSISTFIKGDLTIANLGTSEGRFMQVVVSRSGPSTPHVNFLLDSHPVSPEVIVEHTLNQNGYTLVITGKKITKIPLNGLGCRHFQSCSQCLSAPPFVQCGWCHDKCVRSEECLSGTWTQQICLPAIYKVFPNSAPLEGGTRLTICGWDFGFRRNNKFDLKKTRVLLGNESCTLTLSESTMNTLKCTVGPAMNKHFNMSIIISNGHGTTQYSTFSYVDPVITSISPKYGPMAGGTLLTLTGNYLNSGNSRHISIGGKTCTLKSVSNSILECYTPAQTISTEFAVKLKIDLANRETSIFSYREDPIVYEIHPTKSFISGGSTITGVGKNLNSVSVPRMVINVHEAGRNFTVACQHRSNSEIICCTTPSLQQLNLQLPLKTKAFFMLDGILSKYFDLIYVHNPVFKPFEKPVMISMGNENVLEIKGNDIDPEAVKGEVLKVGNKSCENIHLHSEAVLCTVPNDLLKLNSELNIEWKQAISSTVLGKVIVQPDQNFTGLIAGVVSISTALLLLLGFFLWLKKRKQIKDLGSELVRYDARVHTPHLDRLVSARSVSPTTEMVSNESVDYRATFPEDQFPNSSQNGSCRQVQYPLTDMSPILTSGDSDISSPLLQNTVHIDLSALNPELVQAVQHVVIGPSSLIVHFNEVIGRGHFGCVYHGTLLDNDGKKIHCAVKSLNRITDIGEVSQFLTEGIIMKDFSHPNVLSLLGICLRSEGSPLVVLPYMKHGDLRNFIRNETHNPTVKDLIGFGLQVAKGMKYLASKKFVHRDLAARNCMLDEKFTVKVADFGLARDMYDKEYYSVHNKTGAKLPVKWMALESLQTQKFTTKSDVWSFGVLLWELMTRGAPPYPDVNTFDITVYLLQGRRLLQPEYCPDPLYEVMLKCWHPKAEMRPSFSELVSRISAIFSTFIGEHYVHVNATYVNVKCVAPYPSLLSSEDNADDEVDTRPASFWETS
Sequence of PDGFRβ (P09619 33-1106, species assumed): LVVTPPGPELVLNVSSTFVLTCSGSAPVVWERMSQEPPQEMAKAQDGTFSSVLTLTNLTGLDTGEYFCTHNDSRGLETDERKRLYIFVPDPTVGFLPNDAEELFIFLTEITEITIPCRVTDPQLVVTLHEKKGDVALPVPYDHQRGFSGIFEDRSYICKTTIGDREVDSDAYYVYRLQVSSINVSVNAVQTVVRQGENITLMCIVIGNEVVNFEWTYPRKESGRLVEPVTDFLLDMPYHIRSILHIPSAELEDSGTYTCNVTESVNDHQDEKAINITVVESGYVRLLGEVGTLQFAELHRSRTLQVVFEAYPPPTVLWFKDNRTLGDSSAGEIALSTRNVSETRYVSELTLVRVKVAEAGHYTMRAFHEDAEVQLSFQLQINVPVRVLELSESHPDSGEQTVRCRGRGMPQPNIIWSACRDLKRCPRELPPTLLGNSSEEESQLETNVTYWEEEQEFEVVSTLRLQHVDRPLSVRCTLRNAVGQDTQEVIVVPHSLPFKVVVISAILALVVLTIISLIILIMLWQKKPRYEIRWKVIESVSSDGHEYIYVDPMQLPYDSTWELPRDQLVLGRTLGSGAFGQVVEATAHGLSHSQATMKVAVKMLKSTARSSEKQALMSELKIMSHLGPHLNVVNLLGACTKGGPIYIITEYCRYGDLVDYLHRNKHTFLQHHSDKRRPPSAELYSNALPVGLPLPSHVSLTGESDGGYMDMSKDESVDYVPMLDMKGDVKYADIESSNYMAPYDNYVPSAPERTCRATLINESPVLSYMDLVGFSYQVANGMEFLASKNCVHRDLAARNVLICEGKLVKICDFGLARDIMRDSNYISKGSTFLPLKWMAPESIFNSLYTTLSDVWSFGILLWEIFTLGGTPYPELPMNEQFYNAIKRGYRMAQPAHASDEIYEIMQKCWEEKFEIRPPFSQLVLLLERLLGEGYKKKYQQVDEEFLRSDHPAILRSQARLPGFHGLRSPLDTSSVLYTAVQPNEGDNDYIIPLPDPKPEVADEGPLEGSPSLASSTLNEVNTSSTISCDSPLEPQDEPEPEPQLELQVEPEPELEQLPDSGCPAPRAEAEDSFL

Molecule: 82-89: CSD subdomain DGIWKASF-NH2
- suppression of AngII-induced fibrosis in the heart (Col I deposition and HSP47 level) (Ang II-infused mice; daily i.p. injections): significant beneficial effect
- suppression of AngII-induced microvascular leakage in the heart (IgG heavy chain level in the tissue) (Ang II-infused mice; daily i.p. injections): almost completely suppressed
- overall effectiveness of domains in the CHF model (summary of FIGS. 1-7) (Ang II-infused mice): active
- suppression of the effects of AngII on Heart Weight/Body Weight (HW/BW) ratio (Ang II-infused mice; daily i.p. injections): essentially equally effective as 88-95
- suppression of the effects of AngII on Ejection Fraction (EF), Fractional Shortening (FS), Isovolumic Relaxation Time (IVRT) (Ang II-infused mice; [3]): significant beneficial effect
- activity across all readouts of the bleomycin model (lung, skin, monocyte migration) (bleomycin-treated mice [1]; Example 4 summary): most active of the subdomains tested
- bleomycin-induced lung fibrosis (Ashcroft score) (bleomycin-treated mice [1]): suppression

Molecule: 88-95: CSD subdomain SFTTFTVT-NH2
- suppression of AngII-induced fibrosis in the heart (Col I deposition and HSP47 level) (Ang II-infused mice; daily i.p. injections): most effective CSD subdomain
- suppression of AngII-induced microvascular leakage in the heart (IgG heavy chain level in the tissue) (Ang II-infused mice; daily i.p. injections): almost completely suppressed
- overall effectiveness of domains in the CHF model (summary of FIGS. 1-7) (Ang II-infused mice): most effective Dimethyl sulfoxide (DMSO)-solubilized domain tested
- suppression of the effects of AngII on Heart Weight/Body Weight (HW/BW) ratio (Ang II-infused mice; daily i.p. injections): most effective CSD subdomain
- suppression of the effects of AngII on Ejection Fraction (EF), Fractional Shortening (FS), Isovolumic Relaxation Time (IVRT) (Ang II-infused mice; [3]): most effective CSD subdomain
- suppression of the effects of AngII on Left Ventricle (LV) Mass and Posterior Wall Thickness (pWTh) (Ang II-infused mice; [3]): most effective CSD subdomain
- bleomycin-induced lung fibrosis (Ashcroft score) (bleomycin-treated mice [1]): suppression

Molecule: 94-101: CSD subdomain VTKYWFYR-NH2
- bleomycin-induced lung fibrosis (Ashcroft score) (bleomycin-treated mice [1]): suppression

Molecule: CC[C@H](C)[C@H](NC(=O)CNC(=O)[C@H](CC(=O)O)NC(=O)[C@@H](CCCCN)NC(=O)[C@@H](CCCCN)NC(C)=O)C(=O)N[C@@H](Cc1c[nH]c2ccccc12)C(=O)N[C@@H](CCCCN)C(=O)N[C@@H](C)C(=O)N[C@@H](CO)C(=O)N[C@@H](Cc1ccccc1)C(=O)N[C@H](C(=O)N[C@H](C(=O)N[C@@H](Cc1ccccc1)C(=O)N[C@H](C(=O)N[C@H](C(=O)N[C@H](C(=O)N[C@@H](CCCCN)C(=O)N[C@@H](Cc1ccc(O)cc1)C(=O)N[C@@H](Cc1c[nH]c2ccccc12)C(=O)N[C@@H](Cc1ccccc1)C(=O)N[C@@H](Cc1ccc(O)cc1)C(=O)N[C@@H](CCCNC(=N)N)C(=O)N[C@H](CCCCN)C(=O)N[C@H](CCCCN)C(N)=O)[C@@H](C)O)C(C)C)[C@@H](C)O)[C@@H](C)O)[C@@H](C)O [WCSD] (Ac-[dK][dK]DGIWKASFTTFTVTKYWFYR[dK][dK]-NH2)
- fibrocytes (CD45+/Col I+ cells) in lung (bleomycin-treated mice [2]; Flow Cytometry): almost completely suppressed by WCSD down to the levels in control, saline-treated mice
- bleomycin-induced loss of the transdermal adipose layer in the skin (bleomycin-treated mice [2]; WCSD treatment beginning on day 8): suppresses the almost complete loss of the transdermal adipose layer
- ECM proteins (Col I, Tenascin C) in lung (bleomycin-treated mice [2]; Western blotting, n=4): almost completely suppressed by WCSD down to the levels in control, saline-treated mice
- microvascular leakage (IgG Heavy Chain remaining in the tissue after perfusion) in lung (bleomycin-treated mice [2]; Western blotting, n=4): almost completely suppressed by WCSD down to the levels in control, saline-treated mice
- myofibroblast markers (HSP47, ASMA) in lung (bleomycin-treated mice [2]; Western blotting, n=4): almost completely suppressed by WCSD down to the levels in control, saline-treated mice
- survival (bleomycin-treated mice [2]; bleomycin pump, daily i.p. WCSD): outstanding beneficial effect on survival
- lung fibrosis and inflammatory cell infiltration (histology) (bleomycin-treated mice [2]; bleomycin, treatment also delayed until day 8): suppressed by WCSD even when treatment is delayed until day 8

Molecule: COC(=O)c1ccc2c(c1)NC(=O)/C2=C(\Nc1ccc(N(C)C(=O)CN2CCN(C)CC2)cc1)c1ccccc1 [nintedanib]
- inhibition of PKCα (PKCα): has no effect
- inhibition of PKCε (PKCε): has no effect
- inhibition of cMet (cMet): has no effect
- inhibition of VEGFR1 (VEGFR1): inhibits
- inhibition of VEGFR3 (VEGFR3): inhibits
- inhibition of VEGFR2 (VEGFR2): inhibit
- inhibition of TGFβR1 (TGFβR1): inhibit
- inhibition of Src (Src): inhibit
- inhibition of PDGFRα (PDGFRα): inhibits
- inhibition of PDGFRβ (PDGFRβ): inhibits
